Results reported in patent publication US9664696B1, “Compounds for determining the presence of hydrogen sulfide and methods of use” (University of Oregon, priority 2013, dated 2017).

Tests used:
[1] = pH 7.4
[2] = UV-vis titration of 100 with NaSH, absorbance of products; type: physicochemical; parameters: ε413: unit not given here; conditions: PIPES buffer pH 7.4
[3] = pH titration of compound 42 monitored by UV-vis; type: physicochemical; conditions: aqueous 100 mM KCl / 10 mM KOH solution titrated with HCl; absorbance at 534 nm as a function of pH; read-out: apparent pKa of the thiol
Experimental: A 15 mL solution of compound 42 (111 μM) in 100 mM KCl and 10 mM KOH Millipore water was prepared. The pH of the solution was adjusted with 10 M, 5 M, 1 M, 50 mM, or 1 mM solutions of HCl and the pH recorded. At each pH value, an aliquot of the solution was transferred to a cuvette and the UV-vis spectrum was measured. After measurement, the aliquot was returned to the stock solution and the pH was adjusted to the next point in the titration.

[4] = Colorimetric selectivity studies, H2S versus amino acids and RSONS
[5] = Air sensitivity of the chemiluminescent compound precursors; type: physicochemical
[6] = 1H NMR titration, 1:1 binding model, TBA-Ser; conditions: 10.0 mM probe, 0-200 mM amino acid, DMSO-d6, 25.0° C., average of three titrations
Experimental: (§1) A septum-sealed NMR tube was charged with either chemiluminescent compound precursor 200 or 202 (10 mM in 300 μL of DMSO-d6) and aliquots of a DMSO-d6 solution containing 200 mM amino acid mixed with 10 mM of the compound were added using a syringe. The chemical shifts of the aromatic proton resonances were tracked and the data were fitted to a 1:1 binding model.
In addition to computational evidence for the hydrogen-bonding hypothesis, NMR titrations of chemiluminescent compound precursors 200 and 202 were also performed with different amino acids to further validate the model with solution data. Serine was used as a model amino acid because cysteine quickly reduces chemiluminescent compound precursor 200 under typical experimental conditions. […] Similarly, to model the protonation state of the amino acids in water, and also to ensure complete solubility through the course of the titration, the tetrabutylammonium salts of each amino acid were prepared. By titrating tetrabutylammonium serine (TBA-Ser) into independent solutions of chemiluminescent compound precursors 200 and 202, striking changes in the aromatic region of the NMR spectra were observed, consistent with amino acid binding to the hydrazide moiety (FIGS. 34A-34C). […]

[7] = Chemiluminescent H2S detection limit (HRP/H2O2/p-iodophenol); conditions: for chemiluminescent response after H2S-mediated reduction: followed by treatment with HRP and H2O2; for chemiluminescence in the absence of H2S: treatment with HRP and H2O2, by comparison to luminol or isoluminol
Experimental: (§2) In a septum-sealed cuvette, a solution of the compound (50 μM) and the desired reactive species was incubated in PIPES buffer (50 mM PIPES, 100 mM KCl, pH 7.4) for 60 minutes at 37.0° C. After incubation, 40 μL of 6 M NaOH was added to increase the pH to an optimal level for luminol chemiluminescence. After pH adjustment, 10 μL of 10 U/mL Horseradish Peroxidase (HRP) with 0.2 μM p-iodophenol was added. A background reading was acquired for 60 seconds, after which 50 μL of H2O2 (35%) was added. The sample luminosity at 425 nm was integrated for 300 s after H2O2 addition. The data reported are the average of at least three independent experiments.
In this particular embodiment, the use of a compound for a chemiluminescent testing method is disclosed.
Following the H2S-derived chemiluminescent response of both chemiluminescent compound precursor 200 and chemiluminescent compound precursor 202, the detection limit of each chemiluminescent compound precursor for H2S was determined. After incubating each chemiluminescent compound precursor for 1 hour for different H2S concentrations, the chemiluminescent response was measured after treatment with H2O2/HRP using p-iodophenol as an enhancer. […] Based on the concentration-dependent H2S response and the instrumental background measurements, the H2S detection limit (3σ) of chemiluminescent compound precursor 200 and chemiluminescent compound precursor 202 was determined to be 0.7±0.3 μM and 4.6±2.0 μM, respectively. Although the total brightness of chemiluminescent compound precursor 202 was lower than that of compound 200, both these detection limits were below the reported range of H2S concentrations (20 μM-100 μM) found in mammalian blood.

[8] = Chemiluminescence selectivity for H2S over reactive sulfur, oxygen, and nitrogen species (RSONS); conditions: for turn on for H2S: chemiluminescence, H2S versus blank
Experimental: as §2
The response of chemiluminescent compound precursor 200 and chemiluminescent compound precursor 202 to biologically-relevant reactive sulfur, oxygen, and nitrogen species (RSONS) was also determined. The selectivity of chemiluminescent compound precursor 200 for H2S was determined by adding 33 equivalents of cysteine (Cys), homocysteine (Hcy), N-acetylcysteine (NAC), reduced glutathione (GSH), thiosulfate (S2O3^2−), sulfate (SO4^2−), nitric oxide (NO), nitroxyl (HNO), and nitrite (NO2^−) (FIGS. 10 and 11). […]

[9] = 1H NMR titration, 1:1 binding model, TBA-Val; conditions: 10.0 mM probe, 0-200 mM amino acid, DMSO-d6, 25.0° C., average of three titrations
Experimental: as §1
^1H NMR titrations with tetrabutylammonium valine (TBA-Val) were also performed as a second model system in which the side chain of the amino acid cannot hydrogen bond to the azide. […] The binding affinities measured for TBA-Val are larger than for TBA-Ser (Table 9), which is consistent with the reduced internal competition for intramolecular hydrogen bonding sites in valine. Based on these titration data, and the lower hydrogen bonding ability of thiols by comparison to alcohols, binding affinity of cysteine for chemiluminescent compound precursor 200 and 202 was expected to be between the measured values for serine and valine. Under the general experimental conditions used to measure the selectivity date, a 10^3-10^4 M^−1 binding affinity between Cys/chemiluminescent compound precursor 200 would result in significant generation of the Cys/chemiluminescent compound precursor 200 adduct, which is consistent with the observed erosion in selectivity. […]

[10] = tested on: C6 cells; experiment: Detection of endogenously produced H2S in C6 cell lysates; type: cell-based
Experimental: (§3) In a septum sealed cuvette, the desired reactive species were incubated in PIPES buffer (50 mM PIPES, 100 mM KCl, pH 7.4) at 37.0° C. for 48 hours. After initial incubation, 15 μL of 10 mM chemiluminescent compound precursor 202 in DMSO was added, and allowed to react for 60 min. After incubation, 40 μL of 6 M NaOH was added to increase the pH to an optimal level for luminol chemiluminescence. After pH adjustment, 10 μL of 10 U/mL Horse-radish Peroxidase (HRP) with 0.2 μM p-iodophenol was added. A background reading was acquired for 60 s, after which 50 μL of H2O2 (35%) was added. The sample luminosity at 425 nm was integrated for 40 s after H2O2 addition. The data reported are the average of at least three independent experiments.
C6 cells were obtained from ATCC and cultured in Dulbecco's Modified Eagle Medium (DMEM, Cellgro, MediaTek, Inc.) supplemented with 10% fetal bovine serum (FBS, HyClone), and 1% penicillin/streptomycin. Cells were passed and plated into T-75 flasks containing 10 mL of DMEM, and incubated at 37° C. with 5% CO2. For luminescence studies, the cells were washed with 1× phosphate buffered saline (PBS), trypsinized with 5 mL of Trypsin, and then centrifuged to form a cell pellet. The cell pellet was resuspended in 5 mL of 1×PBS and the cells were counted using a Bio RAD TC20 automated cell counter. Cells were centrifuged at 1,000 RPM for 5 minutes at room temperature, placed on ice and lysed using 100 μL of RIPA buffer (pH 7.5 10 mM Tris-HCl, 150 mM NaCl, 1.0% Nonidet P-40, 0.1% SDS, 0.1% sodium deoxycholate) containing protease inhibitor (PhosSTOP, Roche) for every 2×10^6 cells in the pellet. Luminescence measurements on cell lysates were made using 100 μL of lysate solution (2×10^6 cells per experiment) under ambient atmosphere by following the general procedure for enzymatically produced H2S outlined above.
The ability of chemiluminescent compound precursor 202 to detect and quantify endogenously-produced H2S in C6 cells was determined.

[11] = target: cystathionine γ-lyase (CSE) (Homo sapiens, UniProt P32929); experiment: Detection of enzymatically produced H2S from isolated CSE; type: biochemical
Experimental: as §3
CSE is a PLP-dependent enzyme that converts Hcy or Cys to H2S and can be inhibited by β-cyano-L-alanine (BCA).

[12] = 30 equivalents of H2S then added, 45 min
[13] = Reactant 2-mercaptoethanol (2-ME)
[14] = Reactant H2S, 33 equivalents, 50 μM compound, 60 min, 37.0° C., pH 7.4

cystathionine γ-lyase (CSE), sequence (P32929 whole entry, species assumed): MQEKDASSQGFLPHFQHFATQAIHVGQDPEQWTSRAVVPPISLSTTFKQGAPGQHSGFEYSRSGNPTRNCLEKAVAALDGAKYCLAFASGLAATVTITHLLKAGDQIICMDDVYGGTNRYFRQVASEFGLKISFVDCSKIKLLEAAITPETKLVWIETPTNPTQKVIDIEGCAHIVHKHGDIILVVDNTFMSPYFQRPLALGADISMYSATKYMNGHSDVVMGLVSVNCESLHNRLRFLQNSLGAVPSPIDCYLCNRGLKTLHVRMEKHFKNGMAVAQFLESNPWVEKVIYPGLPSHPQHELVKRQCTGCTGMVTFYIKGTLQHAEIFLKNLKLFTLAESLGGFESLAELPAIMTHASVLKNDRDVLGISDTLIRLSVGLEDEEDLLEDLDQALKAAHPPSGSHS

| Compound | air sensitivity [5] | Binding Affinities [6] [M⁻¹] | chemiluminescent response after H2S-mediated reduction [7] | chemiluminescence in the absence of H2S [7] | Normalized Luminescence (CL/CL0) [8, 13] | Normalized Luminescence (CL/CL0) ([8]; Reactant Cys) | Normalized Luminescence (CL/CL0) ([8]; Reactant GSH) | Normalized Luminescence (CL/CL0) [8, 14] | Normalized Luminescence (CL/CL0) ([8]; Reactant HNO) | Normalized Luminescence (CL/CL0) ([8]; Reactant Hcy) | Normalized Luminescence (CL/CL0) ([8]; Reactant NAC) | Normalized Luminescence (CL/CL0) ([8]; Reactant NO2) | Normalized Luminescence (CL/CL0) ([8]; Reactant ONOO^−) | Normalized Luminescence (CL/CL0) ([8]; Reactant S2O^2−) | Normalized Luminescence (CL/CL0) ([8]; Reactant SNAP (NO)) | Normalized Luminescence (CL/CL0) ([8]; Reactant SO4^2−) | turn on for H2S [8] [fold] | Binding Affinities [9] [M⁻¹] | further results |
| --- | --- | --- | --- | --- | --- | --- | --- | --- | --- | --- | --- | --- | --- | --- | --- | --- | --- | --- | --- |
| Cc1cc(=O)oc2cc(N=[N+]=[N-])ccc12 [C-7Az, 7-azido-4-methylcoumarin] |  |  |  |  |  |  |  |  |  |  |  |  |  |  |  |  |  |  | photostability under continuous exposure [1]: probe photoactivation |
| O=[N+]([O-])c1ccc(Sc2ccc([N+](=O)[O-])c3nonc23)c2nonc12 [compound 40, bis(7-Nitrobenzo[c][1,2,5]oxadiazol-4-yl)sulfane] |  |  |  |  |  |  |  |  |  |  |  |  |  |  |  |  |  |  | ε413 ([2]; absorbance at 413 nm): 11,700±100 |
| O=[N+]([O-])c1ccc(S)c2nonc12 [compound 42, 7-Nitrobenzo[c][1,2,5]oxadiazole-4-thiol] |  |  |  |  |  |  |  |  |  |  |  |  |  |  |  |  |  |  | pKa [3]: 2.6; ε534 ([2]; λmax 534 nm): 19,000±600 M^−1 cm^−1 |
| O=[N+]([O-])c1ccc(Sc2ccc([N+](=O)[O-])c3nonc23)cc1 [compound 116, 4-Nitro-7-(4-nitrophenylthio)benzo[c][1,2,5]oxadiazole] |  |  |  |  |  |  |  |  |  |  |  |  |  |  |  |  |  |  | absorbance peak at 534 nm after initial incubation ([4]; 3 μM compound, 10 equivalents of H2S, glycine, serine, tyrosine, lysine, glutathione, N-acetyl-L-cysteine): only the H2S samples showed the characteristic absorbance peak at 534 nm; H2S response after incubation of GSH and N-acetylcysteine [4, 12]: somewhat eroded; colorimetric response to H2S after incubation with biological nucleophiles [4, 12]: robust colorimetric response to H2S |
| [N-]=[N+]=Nc1cccc2c(=O)[nH][nH]c(=O)c12 [compound 200, 3-Azidophthalhydrazide] | not air-sensitive | 380 ± 80 | robust chemiluminescent response | negligible chemiluminescence | 6.6 ± 3.2 | 81 ± 5 | 94 ± 12 | 128 ± 16 | 9.1 ± 0.2 | 57 ± 3 | 37 ± 19 | 0.9 ± 0.2 | 0.6 ± 0.2 | 5.9 ± 1.1 | 0.05 ± 0.01 | 0.8 ± 0.3 | 128 | 3640 ± 270 |  |
| [N-]=[N+]=Nc1ccc2c(=O)[nH][nH]c(=O)c2c1 [compound 202, 4-Azidophthalhydrazide] | not air-sensitive | 260 ± 60 | robust chemiluminescent response | negligible chemiluminescence | 1.7 ± 0.08 | 1.5 ± 0.03 | 3.7 ± 0.9 | 45 ± 3 | 3.3 ± 0.2 | 3.3 ± 0.5 | 3.3 ± 0.4 | 3.2 ± 0.6 | 4.0 ± 0.2 | 2.2 ± 0.6 | 1.5 ± 0.5 | 1.5 ± 0.3 | 45 | 3780 ± 370 | luminescent response in C6 cell lysates lacking CSE substrates [10]: minimal luminescent response; luminescence in C6 cell lysates with Hcy as CSE substrate ([10]; p<0.001 by comparison to lysates lacking substrate): significantly increased luminescence; luminescent response in C6 cell lysates with Hcy and BCA ([10]; p<0.005): abrogated the luminescent response; chemiluminescent response with CSE in the absence of substrate [11]: no response; chemiluminescent response with CSE and Hcy substrate ([11]; by comparison to CSE alone (p<0.001) or CSE and Hcy inhibited with BCA (p<0.005)): robust response; chemiluminescent response to Hcy, BCA, pyruvate (Pyr) and NH3 ([11]; control experiments without CSE, p<0.005): negligible; Normalized Luminescence (CL/CL0) ([8]; Reactant Toluenethiol (TolSH)): 1.9 ± 0.4 |
